Test results: US11661413B2, “Pyrazole compounds or salts thereof, preparation method therefor, herbicidal composition and use thereof” (priority 2015, dated 2023)

Columns and labels:
Ning Jing 43 = assay: post emergence stage greenhouse pot spray, rice safety; format: in vivo; parameters: key: 10: completely dead; above 90% growth inhibition rate; above 80% growth inhibition rate; above 70% growth inhibition rate; above 60% growth inhibition rate; above 50% growth inhibition rate; 4: above 30% growth inhibition rate; above 30% growth inhibition rate; above 20% growth inhibition rate; above 1-10% growth inhibition rate; 0: no effect; conditions: sprayed at 2-3 leaf stage, after 3 weeks
Description: (§1) The activity level standard of harmful plant damage (i.e. growth inhibition rate) is as follows: The above described growth control rate is fresh weight control rate. Monocotyledonous and dicotyledonous weed seeds and main crop seeds (i.e. wheat, corn, rice, soybean, cotton, oilseed, millet and Sorghum) were put into a plastic pot loaded with soil. Then covered with 0.5-2 cm soil, the seeds were allowed to grow in good greenhouse environment. The test plants were treated at 2-3 leaf stage 2-3 weeks after sowing. […] The solution was sprayed to the plants with a sprayer. Then the plants were cultured for 3 weeks in the greenhouse.

Arrowhead = assay: weed control effect in transplanted rice field (pot, water application); format: in vivo, Sagittaria trifolia; conditions: 500 g a.i./ha, treated at primary leaf stage, 14 days after treatment, naked eye, weed resistant to pyrazosulfuron-ethyl
Description: (§2) Rice field soil was loaded into a 1/1,000,000 ha pot. The seeds of Echinochloa, Scirpus juncoides, Bidens tripartite and Sagittaria trifolia were sowed and gently covered with soil, then left to stand still in greenhouse in the state of 0.5-1 cm of water storage. The tuber of Sagittaria trifolia was planted in the next day or 2 days later. It was kept at 3-4 cm of water storage thereafter. The weeds were treated by dripping the WP or SC water diluents prepared according to the common preparation method of the compounds of the present invention with pipette homogeneously to achieve specified effective amount when Echinochloa, Scirpus juncoides and Bidens tripartite reached 0.5 leaf stage and Sagittaria trifolia reached the time point of primary leaf stage.
(§3) The fertility condition of Echinochloa, Scirpus juncoides, Bidens tripartite and Sagittaria trifolia 14 days after the treatment of the compound of the invention and the fertility condition of rice 21 days after the treatment of the compound of the invention respectively with the naked eye.
(§4) Note: The seeds of barnyard grass, rushlike bulrush, arrowhead and beggartick are collected from Heilongjing Province of China. Tests indicate that the weeds are resistant to common application rate of pyrazosulfuron-ethyl.

Rice = assay: transplanted rice safety evaluation; format: in vivo; conditions: transplanted 3 leaf stage japonica rice, 500 g a.i./ha, treated 5 days after transplantation, 21 days after treatment, naked eye
Description: In addition, the rice field soil that loaded into the 1/1,000,000 ha pot was leveled to keep water storage at 3-4 cm depth. The 3 leaf stage rice (japonica rice) was transplanted at 3 cm of transplanting depth the next day. The compound of the present invention was treated by the same way after 5 days of transplantation.
as §3

Corn = assay: post emergence stage greenhouse pot spray, corn safety; format: in vivo; conditions: 16 g/mu, sprayed at 2-3 leaf stage, after 3 weeks; further: key: 10: completely dead; above 90% growth inhibition rate; above 80% growth inhibition rate; above 70% growth inhibition rate; above 60% growth inhibition rate; above 50% growth inhibition rate; 4: above 30% growth inhibition rate; above 30% growth inhibition rate; above 20% growth inhibition rate; above 1-10% growth inhibition rate; 0: no effect
Description: as §1

rushlike bulrush = assay: weed control effect in transplanted rice field (pot, water application); format: in vivo, Scirpus juncoides; conditions: 500 g a.i./ha, treated at 0.5 leaf stage, 14 days after treatment, naked eye, weed resistant to pyrazosulfuron-ethyl
Description: as §2, §3, §4

Wheat = assay: post emergence stage greenhouse pot spray, wheat safety; format: in vivo; conditions: 16 g/mu, sprayed at 2-3 leaf stage, after 3 weeks; further: key: 10: completely dead; above 90% growth inhibition rate; above 80% growth inhibition rate; above 70% growth inhibition rate; above 60% growth inhibition rate; above 50% growth inhibition rate; 4: above 30% growth inhibition rate; above 30% growth inhibition rate; above 20% growth inhibition rate; above 1-10% growth inhibition rate; 0: no effect
Description: as §1

Barnyard grass [1] = assay: weed control effect in transplanted rice field (pot, water application); format: in vivo, Echinochloa; conditions: 500 g a.i./ha, treated at 0.5 leaf stage, 14 days after treatment, naked eye, weed resistant to pyrazosulfuron-ethyl; further: key: 10: completely dead; above 90% growth inhibition rate; above 80% growth inhibition rate; above 70% growth inhibition rate; above 60% growth inhibition rate; above 50% growth inhibition rate; 4: above 30% growth inhibition rate; above 30% growth inhibition rate; above 20% growth inhibition rate; above 1-10% growth inhibition rate; 0: no effect
Description: as §2, §3, §4

Beggartick = assay: as above; format: in vivo, Bidens tripartite; conditions: 500 g a.i./ha, treated at 0.5 leaf stage, 14 days after treatment, naked eye, weed resistant to pyrazosulfuron-ethyl
Description: as §2, §3, §4

Barnyard grass [2] = assay: weed control effect in post emergence stage, greenhouse pot spray; format: in vivo; conditions: sprayed at 2-3 leaf stage, after 3 weeks
Description: as §1

Flixweed = assay: as above; format: in vivo; conditions: 16 g/mu, sprayed at 2-3 leaf stage, after 3 weeks
Description: as §1

[3] = test system: barnyard grass, rushlike bulrush, arrowhead and beggartick; assay: resistance tests of the weeds collected from Heilongjing Province; format: in vivo; conditions: common application rate; seeds collected from Heilongjing Province of China

SMILES	damage (activity level), Ning Jing 43 (Ning Jing 43; 1 g/mu)	damage (activity level), Ning Jing 43 (Ning Jing 43; 2 g/mu)	damage (activity level), Ning Jing 43 (Ning Jing 43; 4 g/mu)	damage (activity level), Ning Jing 43 (Ning Jing 43; 8 g/mu)	damage (activity level), Ning Jing 43 (Ning Jing 43; 16 g/mu)	weed control effect (activity level), Arrowhead (Arrowhead)	damage (activity level), Rice (Rice)	damage (activity level), Corn (Corn)	weed control effect (activity level), rushlike bulrush (rushlike bulrush)	damage (activity level), Wheat (Wheat)	weed control effect (activity level), Barnyard grass (Barnyard grass [1])	weed control effect (activity level), Beggartick (Beggartick)	weed control effect (activity level), Barnyard grass (Barnyard grass [2]; 1 g/mu)	weed control effect (activity level), Barnyard grass (Barnyard grass [2]; 2 g/mu)	weed control effect (activity level), Barnyard grass (Barnyard grass [2]; 4 g/mu)	weed control effect (activity level), Barnyard grass (Barnyard grass [2]; 8 g/mu)	weed control effect (activity level), Barnyard grass (Barnyard grass [2]; 16 g/mu)	weed control effect (activity level), Flixweed (Flixweed)	resistance of the weeds (in words) [3]
CCOC(=O)Oc1c(C(=O)c2ccc(S(C)(=O)=O)c(Cn3cc(C)cn3)c2Cl)c(C)nn1C [Compound 31]	0	0	0	0	0	9 (above 90% growth inhibition rate)	1 (above 1-10% growth inhibition rate)	0	10	0	10	10	3 (above 30% growth inhibition rate)	5 (above 50% growth inhibition rate)	6 (above 60% growth inhibition rate)	8 (above 80% growth inhibition rate)	9 (above 90% growth inhibition rate)	10	
CCOC(=O)c1cnn(C)c1S(=O)(=O)NC(=O)Nc1nc(OC)cc(OC)n1 [pyrazosulfuron-ethyl]																			resistant
Cc1cc(C)n(Cc2c(S(C)(=O)=O)ccc(C(=O)c3c(C)nn(C)c3OCC(=O)OC(C)(C)C)c2Cl)n1 [Compound 35]						9 (above 90% growth inhibition rate)			10		10	10	3 (above 30% growth inhibition rate)	3 (above 30% growth inhibition rate)	4 (above 30% growth inhibition rate)	4 (above 30% growth inhibition rate)	5 (above 50% growth inhibition rate)	10	
CCc1nn(C)c(O)c1C(=O)c1ccc(S(C)(=O)=O)c(Cn2cc(Cl)cn2)c1Cl [Compound 5]						10			10		10	10	2 (above 20% growth inhibition rate)	2 (above 20% growth inhibition rate)	4 (above 30% growth inhibition rate)	7 (above 70% growth inhibition rate)	8 (above 80% growth inhibition rate)	10	
Cc1cc(C)n(Cc2c(S(C)(=O)=O)ccc(C(=O)c3c(C)nn(C)c3O)c2Cl)n1 [Compound 4]						9 (above 90% growth inhibition rate)			10		10	9 (above 90% growth inhibition rate)	3 (above 30% growth inhibition rate)	4 (above 30% growth inhibition rate)	5 (above 50% growth inhibition rate)	5 (above 50% growth inhibition rate)	7 (above 70% growth inhibition rate)	10	
Cc1ccc(S(=O)(=O)Oc2c(C(=O)c3ccc(S(C)(=O)=O)c(Cn4nc(C)cc4C)c3Cl)c(C)nn2C)cc1 [Compound 33]	0	0	0	0	0	10	1 (above 1-10% growth inhibition rate)	0	10	0	10	10	4 (above 30% growth inhibition rate)	6 (above 60% growth inhibition rate)	5 (above 50% growth inhibition rate)	7 (above 70% growth inhibition rate)	8 (above 80% growth inhibition rate)	10	
Cc1cc(C)n(Cc2c(S(C)(=O)=O)ccc(C(=O)c3c(C4CC4)nn(C)c3O)c2Cl)n1 [Compound 13]						9 (above 90% growth inhibition rate)			9 (above 90% growth inhibition rate)		10	9 (above 90% growth inhibition rate)	2 (above 20% growth inhibition rate)	2 (above 20% growth inhibition rate)	2 (above 20% growth inhibition rate)	5 (above 50% growth inhibition rate)	7 (above 70% growth inhibition rate)	10	
Cc1cnn(Cc2c(S(C)(=O)=O)ccc(C(=O)c3c(C)nn(C)c3O)c2Cl)c1 [Compound 1]						8 (above 80% growth inhibition rate)			10		10	9 (above 90% growth inhibition rate)	4 (above 30% growth inhibition rate)	7 (above 70% growth inhibition rate)	8 (above 80% growth inhibition rate)	10	10	10	
